The values below are quoted from earlier work in patent publication US20080279948A1, “Treatment of Asthma and Copd Using Triple-Combination Therapy” (NXP B.V., priority 2005, published 2008).

The conditions of data set [1]: controlled release formulation for pulmonary delivery.
For data set [2] the following is noted: aerosol formulation, single administration of a metered dose, asthma.

For `C[N+]1(C)CCC(OC(=O)C(O)(c2ccccc2)C2CCCC2)C1.[Br-]` (racemic) [glycopyrrolate, 3-[(Cyclopentyl-hydroxyphenylacetyl)oxy]-1,1-dimethylpyrrolidinium bromide], the “period over which the antimuscarinic agent exerts its pharmacological effect” value in data set [1] is listed as “greater than 12 hours”. Moreover, in data set [2], the duration of bronchodilation result is “up to 12 hours”.
